PubChem BioAssay AID1918996 (Molecular Pharmacology Branch, DTP, NCI, 2023)

Test system: 349418-098-R-PDC complex spheroid growth
Assay: Anticancer human tumor 349418-098-R-PDC patient-derived lung adenocarcinoma cell line growth inhibition [AhR]
Conditions: for IC50: curve of first compound; for viability, T/C: stronger effect = lower value
Procedure, shortened: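 Agents were dosed in half-log steps down from roughly clinical Cmax, or from 10 microM where Cmax was unknown, alone and with AhR antagonists. Read-out: percent test/control growth of tumor spheroids containing HUVEC and MSC stromal cells.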

[1] = second compound 0.1 µM, first compound 0.0316 µM
[2] = second compound 0.1 µM, first compound 0.1 µM
[3] = second compound 0.1 µM, first compound 0.316 µM
[4] = second compound 0.1 µM, first compound 1 µM
[5] = second compound 0.1 µM, first compound 3.16 µM
[6] = second compound 0.1 µM, first compound 10 µM
[7] = second compound 0.316 µM, first compound 0.0316 µM
[8] = second compound 0.316 µM, first compound 0.1 µM
[9] = second compound 0.316 µM, first compound 0.316 µM
[10] = second compound 0.316 µM, first compound 1 µM
[11] = second compound 0.316 µM, first compound 3.16 µM
[12] = second compound 0.316 µM, first compound 10 µM
[13] = second compound 1 µM, first compound 0.0316 µM
[14] = second compound 1 µM, first compound 0.1 µM
[15] = second compound 1 µM, first compound 0.316 µM
[16] = second compound 1 µM, first compound 1 µM
[17] = second compound 1 µM, first compound 3.16 µM
[18] = second compound 1 µM, first compound 10 µM
[19] = second compound 3.16 µM, first compound 0.0316 µM
[20] = second compound 3.16 µM, first compound 0.1 µM
[21] = second compound 3.16 µM, first compound 0.316 µM
[22] = second compound 3.16 µM, first compound 1 µM
[23] = second compound 3.16 µM, first compound 3.16 µM
[24] = second compound 3.16 µM, first compound 10 µM
[25] = second compound 10 µM, first compound 0.0316 µM
[26] = second compound 10 µM, first compound 0.1 µM
[27] = second compound 10 µM, first compound 0.316 µM
[28] = second compound 10 µM, first compound 1 µM
[29] = second compound 10 µM, first compound 3.16 µM
[30] = second compound 10 µM, first compound 10 µM
[31] = second compound 0.1 µM, first compound 0.00316 µM
[32] = second compound 0.1 µM, first compound 0.01 µM
[33] = second compound 0.316 µM, first compound 0.00316 µM
[34] = second compound 0.316 µM, first compound 0.01 µM
[35] = second compound 1 µM, first compound 0.00316 µM
[36] = second compound 1 µM, first compound 0.01 µM
[37] = second compound 3.16 µM, first compound 0.00316 µM
[38] = second compound 3.16 µM, first compound 0.01 µM
[39] = second compound 10 µM, first compound 0.00316 µM
[40] = second compound 10 µM, first compound 0.01 µM
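Note: spheroids exposed to agents for seven days before luminescence viability read.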
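Throughout, for viability, T/C: spheroids also contain HUVEC endothelial cells and human MSC stroma.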

Row | SMILES | IC50 (second compound 0.1 µM) [nM] | IC50 (second compound 0.316 µM) [nM] | IC50 (second compound 1 µM) [nM] | IC50 (second compound 3.16 µM) [nM] | IC50 (second compound 10 µM) [nM] | viability, T/C [1] [%] | viability, T/C [2] [%] | viability, T/C [3] [%] | viability, T/C [4] [%] | viability, T/C [7] [%] | viability, T/C [8] [%] | viability, T/C [9] [%] | viability, T/C [10] [%] | viability, T/C [13] [%] | viability, T/C [14] [%] | viability, T/C [15] [%] | viability, T/C [16] [%] | viability, T/C [19] [%] | viability, T/C [20] [%] | viability, T/C [21] [%] | further results
1 | CC(C)c1c(-c2ccccc2)nc2c(C#N)c[nH]n2c1=O + Cc1ccccc1N=Nc1ccc(NC(=O)c2ccnn2C)c(C)c1 | > 10000 | > 10000 | > 10000 | > 10000 | > 10000 | 79.3 | 85.6 | 95.2 | 98 | 88.2 | 87.3 | 86.2 | 88.7 | 91.6 | 79.8 | 88.8 | 91.4 | 81.7 | 89.9 | 85.2 | viability, T/C [5]: 78%; viability, T/C [6]: 76.5%; viability, T/C [11]: 80%; viability, T/C [12]: 84.7%; viability, T/C [17]: 79.9%; viability, T/C [18]: 58.7%; viability, T/C [22]: 85.7%; viability, T/C [23]: 53.9%; viability, T/C [24]: 62.4%; viability, T/C [25]: 47.5%; viability, T/C [26]: 58.1%; viability, T/C [27]: 59.1%; viability, T/C [28]: 50.4%; viability, T/C [29]: 44.7%; viability, T/C [30]: 57.1%
2 | CC1COCCN1c1cc(-c2ccnn2C)c2ccnc(-c3ccn[nH]3)c2n1 (stereo not given) + Cc1ccccc1N=Nc1ccc(NC(=O)c2ccnn2C)c(C)c1 | 71.3 | 102 | 72.5 | 70.7 | 39.1 | 61 | 47.9 | 13.9 | 10.5 | 81 | 50.3 | 15.6 | 10.4 | 78.6 | 39.4 | 15.8 | 11.3 | 76.2 | 40.5 | 18.6 | viability, T/C [31]: 84.5%; viability, T/C [32]: 96.5%; viability, T/C [33]: 64.4%; viability, T/C [34]: 96.8%; viability, T/C [35]: 107%; viability, T/C [36]: 111%; viability, T/C [37]: 61.6%; viability, T/C [38]: 78.2%; viability, T/C [22]: 11.9%; viability, T/C [39]: 60.4%; viability, T/C [40]: 61.9%; viability, T/C [25]: 55.4%; viability, T/C [26]: 26.9%; viability, T/C [27]: 17.3%; viability, T/C [28]: 12.9%
3 | COc1ccc([C@@H](O)c2cc(-c3ncnc4cc(N5CCOCC5)ccc34)c(F)cc2Cl)nn1 + Cc1ccccc1N=Nc1ccc(NC(=O)c2ccnn2C)c(C)c1 | 1460 | 816 | 945 | 775 | 356 | 96.9 | 102 | 76.2 | 62.8 | 76.4 | 99.5 | 63.1 | 47.3 | 74.1 | 91.7 | 81.6 | 45.5 | 73.8 | 77.2 | 58 | viability, T/C [5]: 29.8%; viability, T/C [6]: 11.7%; viability, T/C [11]: 23.1%; viability, T/C [12]: 11%; viability, T/C [17]: 28.2%; viability, T/C [18]: 12%; viability, T/C [22]: 49.4%; viability, T/C [23]: 25.1%; viability, T/C [24]: 12.7%; viability, T/C [25]: 63.2%; viability, T/C [26]: 45.6%; viability, T/C [27]: 58.6%; viability, T/C [28]: 31.9%; viability, T/C [29]: 21.3%; viability, T/C [30]: 10%
4 | COc1cccc2c1C(=O)c1c(O)c3c(c(O)c1C2=O)CC(O)(C(=O)CO)CC3OC1CC(N)C(O)C(C)O1 (stereo not given) + Cc1cncc(-c2nc(NCCc3c[nH]c4ccccc34)c3ncn(C(C)C)c3n2)c1 | < 31.6 | < 31.6 | < 31.6 | < 31.6 | < 31.6 | 12.1 | 6.61 | 1.44 | 0.29 | 11.5 | 6.41 | 1.16 | 0.42 | 10.5 | 4.41 | 1.26 | 0.31 | 4.44 | 3.03 | 0.5 | viability, T/C [5]: 2.68%; viability, T/C [6]: 3.48%; viability, T/C [11]: 2.47%; viability, T/C [12]: 4%; viability, T/C [17]: 2.61%; viability, T/C [18]: 3.54%; viability, T/C [22]: 0.32%; viability, T/C [23]: 2.14%; viability, T/C [24]: 3.34%; viability, T/C [25]: 0.79%; viability, T/C [26]: 0.69%; viability, T/C [27]: 0.23%; viability, T/C [28]: 0.5%; viability, T/C [29]: 1.35%; viability, T/C [30]: 1.99%
5 | Nc1ncn(C2CC(O)C(CO)O2)c(=O)n1 (stereo not given) + Cc1cncc(-c2nc(NCCc3c[nH]c4ccccc34)c3ncn(C(C)C)c3n2)c1 | 177 | 221 | 305 | < 3.16 | < 3.16 | 80.3 | 59.9 | 40.9 | 29.1 | 83.2 | 69.9 | 40.7 | 25.7 | 82.7 | 68.6 | 50.1 | 34.3 | 21.9 | 17.4 | 17.7 | viability, T/C [31]: 88.5%; viability, T/C [32]: 97.9%; viability, T/C [33]: 93%; viability, T/C [34]: 88.3%; viability, T/C [35]: 84.6%; viability, T/C [36]: 87.2%; viability, T/C [37]: 20.6%; viability, T/C [38]: 21.6%; viability, T/C [22]: 16.2%; viability, T/C [39]: 1.51%; viability, T/C [40]: 1.55%; viability, T/C [25]: 1.75%; viability, T/C [26]: 1.51%; viability, T/C [27]: 1.2%; viability, T/C [28]: 1.31%
